This test deals with T1, Kinesin-like protein KIF11 [15-368] (Homo sapiens, UniProt P52732).
T1 construct: 15-368
T1 sequence (P52732 whole entry): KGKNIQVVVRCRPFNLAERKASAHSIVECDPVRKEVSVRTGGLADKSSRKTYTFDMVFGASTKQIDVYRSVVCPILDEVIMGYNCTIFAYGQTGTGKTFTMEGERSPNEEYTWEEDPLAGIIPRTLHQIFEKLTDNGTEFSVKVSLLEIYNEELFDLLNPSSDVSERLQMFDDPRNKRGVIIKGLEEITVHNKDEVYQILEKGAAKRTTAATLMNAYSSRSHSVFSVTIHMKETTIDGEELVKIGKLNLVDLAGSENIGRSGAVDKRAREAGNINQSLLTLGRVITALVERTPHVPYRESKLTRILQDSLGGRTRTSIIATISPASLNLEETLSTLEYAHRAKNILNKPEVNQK
The test can be described thus: ADP Hunter Plus Assay. The settings on record: pH 7; 25 °C. Here is the method:
Compounds were first tested in triplicates at 100 uM; hit compounds were further tested with a 10-point twofold serial dilution to confirm their activity and determine their IC50 values. S-Trityl-L-cysteine (STLC), a selective Eg5 inhibitor(J. Biol. Chem. 2006, 281:17559-17569; Mol. Cancer Ther. 2004, 3:1079-1090), was used as the control compound. Specifically, 20 uL of 15 mM PIPES (pH 7.0) containing 1 mM MgCl2, 50 nM MT, 20 uM paclitaxel, 200 uM ATP, 5% DMSO, 60 nM Eg5 proteins, and 1:2 serial dilutions of each individual compound starting from 1000 uM were added to each well of a 96-well plate. The plate was incubated at room temperature for 0.5 h, and then, the ADP Hunter Plus reagents were added. The plate was further incubated for 0.5 h and then read for fluorescence (ex.530/em.590) on Synergy 4 (BioTek, Winooski, VT, USA).

A word on the IC50: it is the concentration at which inhibition is half-maximal. Take `Cc1ccc(C2C(C#N)=C(N)Nc3ncnn32)cc1` (stereo not drawn) [SRI35564]: the IC50 is 118 µM. Next, `FC(F)(F)c1ccc(Nc2ncnc3[nH]ncc23)cc1` [SRI35565]: 78.9 µM. For `O=C1CC(c2ccccc2)c2c(n3ncnc3[nH]c2=O)N1` (stereo not drawn) [SRI35566], the IC50 was 65 µM.

The record behind these values is BindingDB's records for doi:10.1111/cbdd.12744 (Southern Research Institute, 2016).
